Test results reported in the supplement of paper PMC11208160.
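Also: IS621 bridge recombinase in Escherichia coli cells against a fixed T5 target plasmid.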

Experiment: recombinant UMI read abundance after kanamycin selection (control-corrected) (log10(CPM+1)); higher = more efficient recombination; extreme values may be limits of the assay; sequences stand for … in AGTGCAGAGAAAATCGGCCAGTTTTCTCTGCCTGCAGTCCGCATGCCGTGGGACCCCTTGGGTTCTAACCTGTTGCCTAGATTTATGCAGCGGACTGCCTTTCTCCCAAAGTGATAAACCGG…AGGTTGGTTTCACT; site = the 11-nt donor
Method in brief: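 Under IPTG (0.07 mM) plus kanamycin, or without selection, Escherichia coli carrying a UMI-tagged donor and donor-binding-loop pair library and a target plasmid for the IS621 bridge recombinase were plated in two replicates. Recombinant UMIs were PCR-amplified across the donor–target junction and sequenced. Counts were converted to CPM, averaged over replicates, scaled by control-derived factors and reported as log10(CPM+1).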
For “GTGGAGGCATGGACCGGTTTTCCCGGTAATCCGTATTTGTG (site GAGGAGGCTCA)”, the “recombinant UMI read abundance (log10)” value was 0.602. In the case of “GTGGAGGCATGGACCGGTTTTCCCGGTAATCCGTATTTGTG (site GCGGAGGCTCA)”, the “recombinant UMI read abundance (log10)” value was 0.6. With “GTGGAGGCATGGACCGGTTTTCCCGGTAATCCGTATTTGTG (site GGGGAGGCTCA)” the “recombinant UMI read abundance (log10)” value was 0. In the case of “GTGGAGGCATGGACCGGTTTTCCCGGTAATCCGTATTTGTG (site GTAGAGGCTCA)”, the “recombinant UMI read abundance (log10)” value was 1.94. With “GTGGAGGCATGGACCGGTTTTCCCGGTAATCCGTATTTGTG (site GTCGAGGCTCA)” the “recombinant UMI read abundance (log10)” value was 0.00904. With “GTGGAGGCATGGACCGGTTTTCCCGGTAATCCGTATTTGTG (site GTGAAGGCTCA)” the “recombinant UMI read abundance (log10)” value was 1.1. With “GTGGAGGCATGGACCGGTTTTCCCGGTAATCCGTATTTGTG (site GTGCAGGCTCA)” the “recombinant UMI read abundance (log10)” value was 0.25. In the case of “GTGGAGGCATGGACCGGTTTTCCCGGTAATCCGTATTTGTG (site GTGGAAGCTCA)”, the “recombinant UMI read abundance (log10)” value was 2.56. For “GTGGAGGCATGGACCGGTTTTCCCGGTAATCCGTATTTGTG (site GTGGACGCTCA)”, the “recombinant UMI read abundance (log10)” value was 1.02. For “GTGGAGGCATGGACCGGTTTTCCCGGTAATCCGTATTTGTG (site GTGGAGACTCA)”, the “recombinant UMI read abundance (log10)” value was 0.959. For “GTGGAGGCATGGACCGGTTTTCCCGGTAATCCGTATTTGTG (site GTGGAGCCTCA)”, the “recombinant UMI read abundance (log10)” value was 0.0109. In the case of “GTGGAGGCATGGACCGGTTTTCCCGGTAATCCGTATTTGTG (site GTGGAGGCTAA)”, the “recombinant UMI read abundance (log10)” value was 0.431. With “GTGGAGGCATGGACCGGTTTTCCCGGTAATCCGTATTTGTG (site GTGGAGGCTCA)” the “recombinant UMI read abundance (log10)” value was 1.41. With “GTGGAGGCATGGACCGGTTTTCCCGGTAATCCGTATTTGTG (site GTGGAGGCTCC)” the “recombinant UMI read abundance (log10)” value was 0.284. In the case of “GTGGAGGCATGGACCGGTTTTCCCGGTAATCCGTATTTGTG (site GTGGAGGCTCG)”, the “recombinant UMI read abundance (log10)” value was 1.53. With “GTGGAGGCATGGACCGGTTTTCCCGGTAATCCGTATTTGTG (site GTGGAGGCTCT)” the “recombinant UMI read abundance (log10)” value was 1.15. In the case of “GTGGAGGCATGGACCGGTTTTCCCGGTAATCCGTATTTGTG (site GTGGAGGCTGA)”, the “recombinant UMI read abundance (log10)” value was 0.461. With “GTGGAGGCATGGACCGGTTTTCCCGGTAATCCGTATTTGTG (site GTGGAGGCTTA)” the “recombinant UMI read abundance (log10)” value was 1.42. For “GTGGAGGCATGGACCGGTTTTCCCGGTAATCCGTATTTGTG (site GTGGAGTCTCA)”, the “recombinant UMI read abundance (log10)” value was 1.82. In the case of “GTGGAGGCATGGACCGGTTTTCCCGGTAATCCGTATTTGTG (site GTGGATGCTCA)”, the “recombinant UMI read abundance (log10)” value was 1.27. In the case of “GTGGAGGCATGGACCGGTTTTCCCGGTAATCCGTATTTGTG (site GTGGCGGCTCA)”, the “recombinant UMI read abundance (log10)” value was 0.00613. With “GTGGAGGCATGGACCGGTTTTCCCGGTAATCCGTATTTGTG (site GTGGGGGCTCA)” the “recombinant UMI read abundance (log10)” value was 0.918. For “GTGGAGGCATGGACCGGTTTTCCCGGTAATCCGTATTTGTG (site GTGGTGGCTCA)”, the “recombinant UMI read abundance (log10)” value was 0. For “GTGGAGGCATGGACCGGTTTTCCCGGTAATCCGTATTTGTG (site GTGTAGGCTCA)”, the “recombinant UMI read abundance (log10)” value was 1.06. For “GTGGAGGCATGGACCGGTTTTCCCGGTAATCCGTATTTGTG (site GTTGAGGCTCA)”, the “recombinant UMI read abundance (log10)” value was 0.792. For “GTGGAGGCATGGACCGGTTTTCCCGGTAATCCGTATTTGTG (site TTGGAGGCTCA)”, the “recombinant UMI read abundance (log10)” value was 0.821. With “GTGGATGCATGGACCGGTTTTCCCGGTAATCCGTATTTGTG (site GTGGAAGCTCA)” the “recombinant UMI read abundance (log10)” value was 1.82. In the case of “GTGGATGCATGGACCGGTTTTCCCGGTAATCCGTATTTGTG (site GTGGACGCTCA)”, the “recombinant UMI read abundance (log10)” value was 0.837. With “GTGGATGCATGGACCGGTTTTCCCGGTAATCCGTATTTGTG (site GTGGAGGCTCA)” the “recombinant UMI read abundance (log10)” value was 0.696. In the case of “GTGGATGCATGGACCGGTTTTCCCGGTAATCCGTATTTGTG (site GTGGATGCTCA)”, the “recombinant UMI read abundance (log10)” value was 1.67. With “GTGGCACCATGGACCGGTTTTCCCGGTAATCCGTATTTGAG (site GTGGCACCTCT)” the “recombinant UMI read abundance (log10)” value was 0.0198. With “GTGGCACCATGGACCGGTTTTCCCGGTAATCCGTATTTGCA (site GAGGCACCTTG)” the “recombinant UMI read abundance (log10)” value was 0. With “GTGGCACCATGGACCGGTTTTCCCGGTAATCCGTATTTGCA (site GCGGCACCTTG)” the “recombinant UMI read abundance (log10)” value was 0. For “GTGGCACCATGGACCGGTTTTCCCGGTAATCCGTATTTGCA (site GGGGCACCTTG)”, the “recombinant UMI read abundance (log10)” value was 0. In the case of “GTGGCACCATGGACCGGTTTTCCCGGTAATCCGTATTTGCA (site GTGGCACCTTG)”, the “recombinant UMI read abundance (log10)” value was 0. With “GTGGCGGCATGGACCGGTTTTCCCGGTAATCCGTATTTGTG (site GTGGAGGCTCA)” the “recombinant UMI read abundance (log10)” value was 0.154. For “GTGGCGGCATGGACCGGTTTTCCCGGTAATCCGTATTTGTG (site GTGGCGGCTCA)”, the “recombinant UMI read abundance (log10)” value was 0.696. For “GTGGCGGCATGGACCGGTTTTCCCGGTAATCCGTATTTGTG (site GTGGGGGCTCA)”, the “recombinant UMI read abundance (log10)” value was 0.0119. With “GTGGCGGCATGGACCGGTTTTCCCGGTAATCCGTATTTGTG (site GTGGTGGCTCA)” the “recombinant UMI read abundance (log10)” value was 0.00615. For “GTGGCTGCATGGACCGGTTTTCCCGGTAATCCGTATTTGAT (site GTGGCTGCTAT)”, the “recombinant UMI read abundance (log10)” value was 2.18. For “GTGTAGGCATGGACCGGTTTTCCCGGTAATCCGTATTTGGC (site ATGTAGGCTGC)”, the “recombinant UMI read abundance (log10)” value was 1.98. With “GTGTAGGCATGGACCGGTTTTCCCGGTAATCCGTATTTGGC (site CTGTAGGCTGC)” the “recombinant UMI read abundance (log10)” value was 1.99. For “GTGTAGGCATGGACCGGTTTTCCCGGTAATCCGTATTTGGC (site GTGTAGGCTGC)”, the “recombinant UMI read abundance (log10)” value was 2.67. For “GTGTAGGCATGGACCGGTTTTCCCGGTAATCCGTATTTGGC (site TTGTAGGCTGC)”, the “recombinant UMI read abundance (log10)” value was 2.28. In the case of “GTGTAGGCATGGACCGGTTTTCCCGGTAATCCGTATTTGTG (site GTGAAGGCTCA)”, the “recombinant UMI read abundance (log10)” value was 0.891. For “GTGTAGGCATGGACCGGTTTTCCCGGTAATCCGTATTTGTG (site GTGCAGGCTCA)”, the “recombinant UMI read abundance (log10)” value was 1.36. For “GTGTAGGCATGGACCGGTTTTCCCGGTAATCCGTATTTGTG (site GTGGAGGCTCA)”, the “recombinant UMI read abundance (log10)” value was 0.00345. For “GTGTAGGCATGGACCGGTTTTCCCGGTAATCCGTATTTGTG (site GTGTAGGCTCA)”, the “recombinant UMI read abundance (log10)” value was 1.75. In the case of “GTGTTTCCATGGACCGGTTTTCCCGGTAATCCGTATTTGTG (site GTGTTTCCTCA)”, the “recombinant UMI read abundance (log10)” value was 0.368. In the case of “GTTAGAGCATGGACCGGTTTTCCCGGTAATCCGTATTTGCA (site GTTAGAGCTTG)”, the “recombinant UMI read abundance (log10)” value was 3.02. With “GTTAGAGCATGGACCGGTTTTCCCGGTAATCCGTATTTGCA (site GTTCGAGCTTG)” the “recombinant UMI read abundance (log10)” value was 1.01. With “GTTAGAGCATGGACCGGTTTTCCCGGTAATCCGTATTTGCA (site GTTGGAGCTTG)” the “recombinant UMI read abundance (log10)” value was 1.6. With “GTTAGAGCATGGACCGGTTTTCCCGGTAATCCGTATTTGCA (site GTTTGAGCTTG)” the “recombinant UMI read abundance (log10)” value was 1.08. For “GTTAGAGCATGGACCGGTTTTCCCGGTAATCCGTATTTGGG (site GTTAGAGCTCC)”, the “recombinant UMI read abundance (log10)” value was 0.089. For “GTTAGCACATGGACCGGTTTTCCCGGTAATCCGTATTTGGC (site GTTAGAACTGC)”, the “recombinant UMI read abundance (log10)” value was 0. With “GTTAGCACATGGACCGGTTTTCCCGGTAATCCGTATTTGGC (site GTTAGCACTGC)” the “recombinant UMI read abundance (log10)” value was 2.11. In the case of “GTTAGCACATGGACCGGTTTTCCCGGTAATCCGTATTTGGC (site GTTAGGACTGC)”, the “recombinant UMI read abundance (log10)” value was 0.0382.
